# Measured values published in PMC8162746 (Cancer chemotherapy and pharmacology, 2021).
# Where “and” joins values, the source holds several entries; their conditions need not be identical. Equal entries are not always repeated. Where two headings read alike, the source gives them in different places.
# Columns and labels:
# [1] = tested on: patients with primary CNS and advanced solid tumors; experiment: Phase I dose-escalation trial of oral AR-42: safety and tolerability; type: in vivo
# [2] = cited from earlier work
smiles,measurement,setting,value
CC(C)[C@H](C(=O)Nc1ccc(C(=O)NO)cc1)c1ccccc1 [AR-42],"Hematuria, treatment-related adverse event, Grade 3–4","[1]; N=17, 30-80 mg",1 (5.9%) n (%)
same,"Hypermagnesemia, treatment-related adverse event, All grades","[1]; N=17, 30-80 mg",2 (11.8%) n (%)
same,"Hypermagnesemia, treatment-related adverse event, Grade 1–2","[1]; N=17, 30-80 mg",2 (11.8%) n (%)
same,"Hypernatremia, treatment-related adverse event, All grades","[1]; N=17, 30-80 mg",2 (11.8%) n (%)
same,"Hypernatremia, treatment-related adverse event, Grade 1–2","[1]; N=17, 30-80 mg",2 (11.8%) n (%)
same,"Hypersomnia, treatment-related adverse event, All grades","[1]; N=17, 30-80 mg",2 (11.8%) n (%)
same,"Hypersomnia, treatment-related adverse event, Grade 1–2","[1]; N=17, 30-80 mg",2 (11.8%) n (%)
same,"Hypoalbuminemia, treatment-related adverse event, All grades","[1]; N=17, 30-80 mg",5 (29.4%) n (%)
same,"Hypoalbuminemia, treatment-related adverse event, Grade 1–2","[1]; N=17, 30-80 mg",5 (29.4%) n (%)
same,"Hyponatremia, treatment-related adverse event, All grades","[1]; N=17, 30-80 mg",3 (17.6%) n (%)
same,"Hyponatremia, treatment-related adverse event, Grade 1–2","[1]; N=17, 30-80 mg",3 (17.6%) n (%)
same,"Hypophosphatemia, treatment-related adverse event, All grades","[1]; N=17, 30-80 mg",7 n (%) and 7 (41.2%) n (%)
same,"Hypophosphatemia, treatment-related adverse event, Grade 1–2","[1]; N=17, 30-80 mg",4 (23.5%) n (%)
same,"Hypophosphatemia, treatment-related adverse event, Grade 3–4","[1]; N=17, 30-80 mg",3 (17.6%) n (%)
same,"Impaired concentration, treatment-related adverse event, All grades","[1]; N=17, 30-80 mg",3 (17.6%) n (%)
same,"Impaired concentration, treatment-related adverse event, Grade 1–2","[1]; N=17, 30-80 mg",3 (17.6%) n (%)
same,"Leukopenia, treatment-related adverse event, All grades","[1]; N=17, 30-80 mg",8 n (%) and 8 (47.1%) n (%)
same,"Leukopenia, treatment-related adverse event, Grade 1–2","[1]; N=17, 30-80 mg",8 (47.1%) n (%)
same,"Limb edema, treatment-related adverse event, All grades","[1]; N=17, 30-80 mg",2 (11.8%) n (%)
same,"Limb edema, treatment-related adverse event, Grade 1–2","[1]; N=17, 30-80 mg",2 (11.8%) n (%)
same,"Lymphopenia, treatment-related adverse event, All grades","[1]; N=17, 30-80 mg",7 n (%) and 7 (41.2%) n (%)
same,"Lymphopenia, treatment-related adverse event, Grade 1–2","[1]; N=17, 30-80 mg",4 (23.5%) n (%)
same,"Lymphopenia, treatment-related adverse event, Grade 3–4","[1]; N=17, 30-80 mg",3 (17.6%) n (%)
same,"Myalgia, treatment-related adverse event, All grades","[1]; N=17, 30-80 mg",4 (23.5%) n (%)
same,"Myalgia, treatment-related adverse event, Grade 1–2","[1]; N=17, 30-80 mg",4 (23.5%) n (%)
same,"Nausea, treatment-related adverse event, All grades","[1]; N=17, 30-80 mg",10 n (%) and 10 (58.8%) n (%)
same,"Nausea, treatment-related adverse event, Grade 1–2","[1]; N=17, 30-80 mg",8 (47.1%) n (%)
same,"Nausea, treatment-related adverse event, Grade 3–4","[1]; N=17, 30-80 mg",2 (11.8%) n (%)
same,"Neutropenia, treatment-related adverse event, All grades","[1]; N=17, 30-80 mg",7 n (%) and 7 (41.2%) n (%)
same,"Neutropenia, treatment-related adverse event, Grade 1–2","[1]; N=17, 30-80 mg",7 (41.2%) n (%)
same,"Psychiatric disorder, treatment-related adverse event, All grades","[1]; N=17, 30-80 mg",1 (5.9%) n (%)
same,"Psychiatric disorder, treatment-related adverse event, Grade 3–4","[1]; N=17, 30-80 mg",1 (5.9%) n (%)
same,"Thrombocytopenia, treatment-related adverse event, All grades","[1]; N=17, 30-80 mg",13 (76.5%) n (%)
same,"Thrombocytopenia, treatment-related adverse event, Grade 1–2","[1]; N=17, 30-80 mg",8 (47.1%) n (%)
same,"Thrombocytopenia, treatment-related adverse event, Grade 3–4","[1]; N=17, 30-80 mg",5 (29.4%) n (%)
same,"Thromboembolic event, treatment-related adverse event, All grades","[1]; N=17, 30-80 mg",1 (5.9%) n (%)
same,"Thromboembolic event, treatment-related adverse event, Grade 3–4","[1]; N=17, 30-80 mg",1 (5.9%) n (%)
same,"Vomiting, treatment-related adverse event, All grades","[1]; N=17, 30-80 mg",4 (23.5%) n (%)
same,"Vomiting, treatment-related adverse event, Grade 1–2","[1]; N=17, 30-80 mg",4 (23.5%) n (%)
same,"Weight loss, treatment-related adverse event, All grades","[1]; N=17, 30-80 mg",3 (17.6%) n (%)
same,"Weight loss, treatment-related adverse event, Grade 1–2","[1]; N=17, 30-80 mg",2 (11.8%) n (%)
same,"Weight loss, treatment-related adverse event, Grade 3–4","[1]; N=17, 30-80 mg",1 (5.9%) n (%)
same,Only grade 4 TRAE,[1]; at the 80 mg dose,psychosis
same,No. of dose delays,"[1]; dose level 1A, 30 mg",0
same,No. of dose reductions,"[1]; dose level 1A, 30 mg",0
same,Description of DLT,"[1]; dose level 1B, 60 mg",Thrombocytopenia (grade 3)
same,No. of dose delays,"[1]; dose level 1B, 60 mg",4
same,No. of dose reductions,"[1]; dose level 1B, 60 mg",2
same,No. of patients with a DLT,"[1]; dose level 1B, 60 mg, 7 patients",1
same,No. of dose delays,"[1]; dose level 2A, 60 mg",0
same,No. of dose reductions,"[1]; dose level 2A, 60 mg",0
same,No. of patients with a DLT,"[1]; dose level 2A, 60 mg, 2 patients",0
same,No. of dose delays,"[1]; dose level 2B, 80 mg",0
same,No. of dose reductions,"[1]; dose level 2B, 80 mg",0
same,No. of patients with a DLT,"[1]; dose level 2B, 80 mg, 2 patients",1
same,Patients who developed a grade 4 toxicity,"[1]; during cycle one, N=17",5.9%
same,Patients who developed at most a grade 1 toxicity,"[1]; during cycle one, N=17",23.5%
same,Patients who developed at most a grade 2 toxicity,"[1]; during cycle one, N=17",29.4%
same,Patients who developed at most a grade 3 toxicity,"[1]; during cycle one, N=17",29.4%
same,Patients who experienced no toxicities,"[1]; during cycle one, N=17",11.8%
same,No. of dose delays,"[1]; expansion cohort, 60 mg",0
same,No. of dose reductions,"[1]; expansion cohort, 60 mg",0
same,Grade 4 thrombocytopenia,[1]; in vivo,no grade 4 thrombocytopenia
same,Recommended phase II dose (RP2D),"[1]; oral, three times weekly, three weeks of a 28-day cycle",60 mg
same,Clinically significant bleeding events,[1]; with thrombocytopenia,no clinically significant bleeding events
same,Blood brain barrier penetration,[2]; mouse model,crossed the blood brain barrier
same,Blood brain barrier penetration,[2]; rodents,penetrates the blood brain barrier
